Data set [1] concerns Plasmodium berghei. The data set is described as follows: Antiplasmodial activity against GFP-Luccon-fused liver stage Plasmodium berghei infected in human Huh-7 cells assessed as parasitic growth inhibition at 1 uM measured after 48 hrs by bioluminescence assay. It counts as functional, organism-based.
Data set [2] deals with Plasmodium berghei. Description: Antiplasmodial activity against GFP-Luccon-fused liver stage Plasmodium berghei infected in human Huh-7 cells assessed as parasitic growth inhibition at 10 uM measured after 48 hrs by bioluminescence assay. It counts as functional, organism-based.
For data set [3], the system named is Plasmodium falciparum. The data set is described as follows: Antiplasmodial activity against CQ-sensitive blood stage Plasmodium falciparum 3D7 infected in group B human erythrocytes assessed as parasitic growth inhibition measured after 48 hrs by flow cytometry. It counts as functional, organism-based. As to conditions: 3D7, Erythrocyte.
Data set [4] has as its system Plasmodium falciparum. The data set is described as follows: Antiplasmodial activity against gametocyte stage Plasmodium falciparum NF54-gexp02-Tom infected in group B human erythrocytes assessed as parasitic growth inhibition measured after 15 days by Geimsa staining based analysis. It counts as functional, organism-based. As to conditions: Erythrocyte, 360 h.
A further data set deals with Huh-7. Description: Cytotoxicity against human Huh-7 cells assessed as cell viability at 10 uM measured after 48 hrs by Alamar blue staining based analysis. The format is toxicity. As to conditions: huh-7, 48 h. (In general: Resazurin is reduced to fluorescent resorufin, in cell work by metabolically active cells.)
Data set [5] has as its system Plasmodium falciparum. The data set is described as follows: Antiplasmodial activity against CQ-sensitive blood stage Plasmodium falciparum 3D7 assessed as parasitic growth inhibition. The format is functional, organism-based.
Data set [6] has as its system Plasmodium berghei. Description: Antiplasmodial activity against GFP-Luccon-fused liver stage Plasmodium berghei infected in human Huh-7 cells assessed as parasitic growth inhibition measured after 48 hrs by Alamar blue staining based analysis. The format is functional, organism-based. As to conditions: Huh-7, 48 h.

The source made the active and inactive calls. The rule behind the calls is not given here.

Turning to `COc1cc(NCCCCNC(=O)/C=C/c2ccc(F)cc2)c2nc3cc(Cl)ccc3cc2c1`, in the data set with Plasmodium berghei [1], the inhibition result is “inactive”. Moreover, in the data set with Plasmodium berghei [2], the inhibition result was “Active”.

In general, IC50 refers to the midpoint of a concentration-inhibition curve. Regarding `CCN(CC)CCCNc1c2ccc(Cl)cc2nc2c(NCCCCNC(=O)/C=C/c3ccc(OC)cc3)cc(OC)cc12`, the IC50 stood at 164 nM in the data set on Plasmodium falciparum [3] and 474 nM in the data set with Plasmodium falciparum [4]. The Activity entry with Huh-7 is listed as “Toxic”. Further, the inhibition entry in the data set on Plasmodium berghei [1] is “inactive”. In the data set on Plasmodium berghei [2], the inhibition entry is “Active”.

Consider `CCN(CC)CCCNc1c2ccc(Cl)cc2nc2c(NCCCCNC(=O)/C=C/c3cccc(F)c3)cc(OC)cc12`, for which the IC50 was 161 nM in the data set on Plasmodium falciparum [3] and ~430 nM in the data set with Plasmodium falciparum [4]. The Activity entry with Huh-7 is listed as “Toxic”. For the same molecule, in the data set with Plasmodium berghei [1], the inhibition entry is “inactive”. In addition, the inhibition entry in the data set on Plasmodium berghei [2] was “Active”.

Consider `CCN(CC)CCCC(C)Nc1c2ccc(Cl)cc2nc2c(NCCCCNC(=O)/C=C/c3cccc(F)c3)cc(OC)cc12` (stereo not drawn), for which the IC50 in the data set with Plasmodium falciparum [3] was found to be 164 nM. The Activity result with Huh-7 is “Toxic”. Moreover, the inhibition entry with Plasmodium berghei [1] was “inactive”. Further, the inhibition result in the data set with Plasmodium berghei [2] is “Active”.

Turning to `CCN(CC)CCCC(C)Nc1c2ccc(Cl)cc2nc2c(NCCCCNC(=O)/C=C/c3ccc(OC)cc3)cc(OC)cc12` (stereo not drawn), in the data set on Plasmodium falciparum [3], the IC50 is 153 nM. For the same molecule, the Activity entry in the data set with Huh-7 is listed as “Toxic”. The inhibition entry in the data set on Plasmodium berghei [1] was “inactive”. Also, the inhibition entry in the data set with Plasmodium berghei [2] was “Active”.

As for `COc1cc(NCCCCNC(=O)/C=C/c2cccc(F)c2)c2nc3cc(Cl)ccc3cc2c1`, the inhibition result in the data set on Plasmodium berghei [1] is “inactive”. For the same molecule, in the data set with Plasmodium berghei [2], the inhibition result was “Active”.

In the case of `CCN(CC)CCCNc1c2ccc(Cl)cc2nc2c(NCCCCNC(=O)/C=C/c3ccccc3)cc(OC)cc12`, the IC50 with Plasmodium falciparum [3] came out at 80 nM. The Activity entry with Huh-7 is recorded as “Toxic”. Moreover, the inhibition result with Plasmodium berghei [1] was “inactive”. For the same molecule, the inhibition result in the data set with Plasmodium berghei [2] was “Active”.

Take `CCN(CC)CCCNc1c2ccc(Cl)cc2nc2c(NCCCCN)cc(OC)cc12`: the Activity entry in the data set on Huh-7 is recorded as “Non-Toxic”. In addition, the IC50 in the data set with Plasmodium falciparum [5] stood at 440 nM. The inhibition result in the data set on Plasmodium berghei [1] was “inactive”. In the data set with Plasmodium berghei [2], the inhibition result was “Active”.

Regarding `CCN(CC)CCCC(C)Nc1c2ccc(Cl)cc2nc2c(NCCCCN)cc(OC)cc12` (stereo not drawn), the Activity entry with Huh-7 is “Non-Toxic”. For the same molecule, the IC50 in the data set with Plasmodium falciparum [5] stood at 680 nM; with Plasmodium berghei [6], 11000 nM. In addition, the inhibition entry with Plasmodium berghei [1] was “inactive”. In the data set with Plasmodium berghei [2], the inhibition result is “Active”.

In the case of `COc1ccc(/C=C/C(=O)NCCCCNc2cc(OC)cc3cc4ccc(Cl)cc4nc23)cc1`, the inhibition entry with Plasmodium berghei [1] is “inactive”. For the same molecule, in the data set on Plasmodium berghei [2], the inhibition result was “Active”.

Consider `COc1cc(NC(C)CCCN)c2ncccc2c1` (stereo not drawn) [PRIMAQUINE], for which the IC50 in the data set with Plasmodium falciparum [4] came out at 17700 nM. In the data set on Plasmodium berghei [1], the inhibition entry was “inactive”. Further, the inhibition result in the data set with Plasmodium berghei [2] is “Active”.

Turning to `CCN(CC)CCCNc1c2ccc(Cl)cc2nc2c(NCCCCNC(=O)/C=C/c3ccc(F)cc3)cc(OC)cc12`, the IC50 in the data set on Plasmodium falciparum [3] is 348 nM. Also, the Activity entry in the data set on Huh-7 is on record as “Toxic”. Also, in the data set with Plasmodium berghei [1], the inhibition entry was “inactive”. Further, the inhibition result with Plasmodium berghei [2] is “Active”.

`CCN(CC)CCCC(C)Nc1c2ccc(Cl)cc2nc2c(NCCCCNC(=O)/C=C/c3ccc(F)cc3)cc(OC)cc12` (stereo not drawn): the half-maximal inhibitory concentration (IC50) amounted to 178 nM in the data set on Plasmodium falciparum [3] and 645 nM with Plasmodium falciparum [4]. Further, the Activity entry in the data set with Huh-7 is given as “Toxic”. For the same molecule, the inhibition result in the data set with Plasmodium berghei [1] was “inactive”. Besides, the inhibition result in the data set on Plasmodium berghei [2] was “Active”.

For the molecule `CCN(CC)CCCC(C)Nc1c2ccc(Cl)cc2nc2c(NCCCCNC(=O)/C=C/c3ccccc3)cc(OC)cc12` (stereo not drawn), the 50% inhibitory concentration (IC50) worked out at 143 nM with Plasmodium falciparum [3] and 461 nM in the data set on Plasmodium falciparum [4]. For the same molecule, the Activity entry with Huh-7 is “Toxic”. The inhibition entry with Plasmodium berghei [1] is “inactive”. The inhibition entry in the data set on Plasmodium berghei [2] was “Active”.

For `CCN(CC)CCCC(C)Nc1ccnc2cc(Cl)ccc12` (stereo not drawn), the inhibition entry with Plasmodium berghei [1] is “inactive”. In addition, the inhibition entry with Plasmodium berghei [2] is “Active”.

Consider `COc1cc(NCCCCNC(=O)/C=C/c2ccccc2)c2nc3cc(Cl)ccc3cc2c1`, for which the inhibition entry in the data set with Plasmodium berghei [1] is “inactive”. Also, the inhibition result in the data set with Plasmodium berghei [2] is “Active”.

Values taken from ChEMBL document CHEMBL5550114, “Disclosure of cinnamic acid/4,9-diaminoacridine conjugates as multi-stage antiplasmodial hits” (Bioorg Med Chem, 2024).
